Assay results published in the supplement of paper PMC10307832.

Tests used:
Experiment in all cases: relative viability (nuclei count vs DMSO), 5 days (fraction); higher = more cells survive
RU-SKI 43 + Phenformin = compound: CC[C@@H](C)CNCC(=O)N1CCC2=C([C@@H]1COC3=CC=CC(=C3)C)C=CS2 [RU-SKI 43] + N=C(N)NC(=N)NCCc1ccccc1 [Phenformin] (partner 250 µM)
Summary of the method: (§1)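 After 5 days of treatment, lung cancer cells in 1536-well plates were fixed and stained in a single step (final 0.05% Triton X-100, 1% formaldehyde, 1 ug/ml Hoechst) and their nuclei counted on 4× images. Treatment had been applied by pin tool the day after seeding as one drug alone or as a fixed anchor-drug dose with five library-drug doses (not always all listed) in √10 steps. Relative viability is the nuclei count of treated wells divided by that of vehicle wells, and values are medians of duplicate plates.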

Irinotecan + Bortezomib = compound: CCc1c2c(nc3ccc(OC(=O)N4CCC(N5CCCCC5)CC4)cc13)-c1cc3c(c(=O)n1C2)COC(=O)[C@]3(O)CC [Irinotecan] + CC(C)C[C@H](NC(=O)[C@H](Cc1ccccc1)NC(=O)c1cnccn1)B(O)O [Bortezomib] (partner 0.002 µM)
Summary of the method: as §1

Irinotecan + Phenformin = compound: CCc1c2c(nc3ccc(OC(=O)N4CCC(N5CCCCC5)CC4)cc13)-c1cc3c(c(=O)n1C2)COC(=O)[C@]3(O)CC [Irinotecan] + N=C(N)NC(=N)NCCc1ccccc1 [Phenformin] (partner 250 µM)
Summary of the method: as §1

MK-8033 + Pictilisib = compound: Cn1cc(-c2cnc3ccc4ccc(CS(=O)(=O)NCc5ccccn5)cc4c(=O)c3c2)cn1 [MK-8033] + CS(=O)(=O)N1CCN(Cc2cc3nc(-c4cccc5[nH]ncc45)nc(N4CCOCC4)c3s2)CC1 [Pictilisib] (partner 1 µM)
Summary of the method: as §1

## UMC-11
RU-SKI 43 + Phenformin; first compound 0.1 µM
  relative viability: 0.349
RU-SKI 43 + Phenformin; first compound 0.3162 µM
  relative viability: 0.366
RU-SKI 43 + Phenformin; first compound 1 µM
  relative viability: 0.33
RU-SKI 43 + Phenformin; first compound 3.162 µM
  relative viability: 0.32
RU-SKI 43 + Phenformin; first compound 10 µM
  relative viability: 0.344
Irinotecan + Bortezomib; first compound 0.6325 µM
  relative viability: 0.595
Irinotecan + Bortezomib; first compound 2 µM
  relative viability: 0.519
Irinotecan + Bortezomib; first compound 6.325 µM
  relative viability: 0.184
Irinotecan + Bortezomib; first compound 20 µM
  relative viability: 0.139
Irinotecan + Phenformin; first compound 0.6325 µM
  relative viability: 0.294
Irinotecan + Phenformin; first compound 2 µM
  relative viability: 0.235
Irinotecan + Phenformin; first compound 6.325 µM
  relative viability: 0.196
Irinotecan + Phenformin; first compound 20 µM
  relative viability: 0.189
MK-8033 + Pictilisib; first compound 0.02 µM
  relative viability: 0.746
MK-8033 + Pictilisib; first compound 0.06325 µM
  relative viability: 0.511
MK-8033 + Pictilisib; first compound 0.2 µM
  relative viability: 0.804
MK-8033 + Pictilisib; first compound 0.6325 µM
  relative viability: 0.932
MK-8033 + Pictilisib; first compound 2 µM
  relative viability: 0.699
